Laboratory results published in US9944721B2, “Polysialic acid and use for treatment of neurodegenerative and neuroinflammatory diseases” (RHEINISCHE FRIEDRICH-WILHELMS UNIVERSITÄT BONN, priority 2013, dated 2018).

What was measured:
[1] = Biotinylated PSA-20 in serum and brain after intraperitoneal application (ELISA); format: in vivo, mice
Protocol: First, PSA-20 was conjugated with biotin and a sensitive ELISA to detect biotinylated PSA-20 was established. The PSA-20 was coupled with a biotin molecule at the sixth carbon atom of sialic acid at the terminus of the PSA-20 chains. Therefore, the terminus of PSA-20 was oxidized to an aldehyde by sodium metaperiodate. Afterwards, hydrazide coupled biotin was conjugated at room temperature to the aldehyde group to form a hydrazone bond. Purification was carried out with a desalting column (HiTrap Desalting Column GE Healthcare).
Biotin-conjugated PSA-20 (10 μg per g body weight) was applied in adult mice by intraperitoneal application. An ELISA method was used to detect biotinylated PSA-20 in the serum and brain. For the ELISA, NeutrAvidin coated pre-blocked plates (Thermo Scientific) were washed three times with PBST (PBS+0.05% Tween-20). After washing, plasma and brain homogenate as well as defined concentrations of biotinylated PSA-20 as standard were applied for 1 h at room temperature. Plates were washed three times and were incubated with a monoclonal antibody directed against oligosialic acids (rat-anti-mouse CD56, BD Pharmingen #556325) over night at 4° C. The following day the plate were washed three times and incubated with goat anti-mouse immunoglobulin conjugated with peroxidase-HRP (Jackson ImmunoResearch). Then, plates were washed and incubated with 100 μl TMB-reagent for 30 min at room temperature. The reaction was stopped by addition of 100 μl 1N HCl and the signal was detected with an ELISA reader.
Serum and brain tissue of one mouse was analyzed before application and at 0.5, 1, 2, 4 and 8 hours after application. The highest PSA-20 level was detected in the serum at 0.5 hours and in the brain at 2 hours. The half-time of PSA-20 in the serum and in the brain was estimated to be between 2 and 3 hours. The bioavailability of PSA-20 in the brain in relation to the serum was estimated to be between 1 and 3%. […] As can be taken from the FIG. 10C, PSA-20 was detected in the serum and the brain. […]

[2] = test system: human microglia stimulated with neural debris or Drusen-like debris; test: Debris-induced superoxide release of human microglia (macular degeneration culture model, DHE); format: cell-based
Protocol: Second, effect of PSA-20 on microglia stimulated with neural cellular debris was analyzed. Drusen containing cellular debris is one characteristics of senile macular degeneration. To study the effect of degenerated material on the retinal microglia, we prepared neural debris by hypotonic and mechanic lysis of human neurons derived from induced pluripotent stem cells. Then, we treated the human microglial line derived from induced pluripotent stem cells and analyzed the effect of PSA-20. Superoxide release was determined by the fluorescent dye DHE. […] Cells were fixed with 4% paraformaldehyde plus 0.25% glutaraldehyde and analyzed by confocal microscopy. For the quantification of DHE staining intensity six pictures of each experiment were obtained and analyzed by ImageJ software (NIH). […] Cells were fixed and the intensity of DHE was quantified by confocal microscopy. […]
To obtain Drusen-like debris from the retina, human retinal pigment epithelium ARPE-19 cells were treated with 80 nM okadaic acid for 24 hours at 37° C. and 5% CO2, centrifuged, washed three times with PBS and the pellet was frozen at −20° C. […] Cells were fixed and the release of superoxide was quantified by the intensity of the DHE dye. […]

[3] = test system: co-culture of human microglial line and iPS cell derived neurons; test: Microglial neurotoxicity in human microglia-neuron co-culture, 24 hours (neurite length); format: cell-based; details: 1.5 μM, 24 hours co-culture; FIG. 4D
Protocol: Next, the human microglial line was co-cultured for 24 hours with neurons derived from induced pluripotent stem cells and the effect of low molecular weight polysialic acid (PSA-20; 1.5 μM) on microglial neurotoxicity was evaluated. The human neurons were generated from human induced pluripotent stem cells (iPS cells). In vitro differentiation into neurons was carried out using a short modified protocol, which was used to induce primitive neural precursors. In detail, iPS cells were cultured on feeder cells to form small colonies. Next medium was changed to neural induction medium in the presence of LIF and three small molecules CHIR99021 (inhibitor of GSK-3β) and SB431542 (inhibitor of TGF-β and activin receptors), and compound E (inhibitor of γ-secretase) for 10 days. To expand the neural precursors, cells were dissociated to single cells by accutase and plated on poly-L-ornithine/fibronectin coated cell culture dishes with induction medium in the presence of leukaemia inhibitory factor (LIF), CHIR99021 and SB431542. […] Ten random photographs were taken for each condition by confocal laser scanning microscopy (Fluoview 1000, Olympus) and length of neuronal branches was measured by Neuron J software (NIH).

[4] = biotin-conjugated PSA-20, 10 μg per g body weight i.p., adult mice

- passage of the blood-brain barrier ([1]; after systemic application): passed the blood-brain barrier
- time of peak concentration in the brain [1, 4]: 2 h
- time of peak concentration in the serum [1, 4]: 0.5 h
Substance: poly-(α(2→8)Neu5Ac)n [PSA-20]
- relative superoxide production ([2]; Drusen-like debris from ARPE-19 cells, 10 μg/ml PSA-20, 30 minutes, without PSA-20 1.38+/−0.02, FIG. 7C): 0.92+/−0.22
- cellular neural debris induced superoxide production ([2]; neural debris from human neurons, FIG. 7B): prevented
- neurotoxic effect of human microglia on human neurons (relative neurite length) [3]: completely prevented the neurotoxic effect
